According to article PMC12351382, “Fibrinography and thrombography (thrombodynamics-4D) in atrial fibrillation assessment of direct oral anticoagulants in geriatrics patients aged 80 years and older receiving direct oral anticoagulant therapy” (Research and Practice in Thrombosis and Haemostasis, 2025):

Assays:
[1] = Plasma DOAC concentration in ADAGE patients (chromogenic anti-FXa assay for rivaroxaban and apixaban; anti-FIIa Hemoclot assay for dabigatran); assay type: in vivo, human; conditions: for DOAC concentration, range: ADAGE patients, reduced dose (regimens as E1)
Description: (§1) ADAGE is an academic, prospective, observational multicenter study (NCT 02464488; for details, see Foulon-Pinto et al.). We recruited hospitalized patients from the university hospital’s geriatric department (Assistance Publique-Hôpitaux de Paris, Paris, France). […] The DOAC dose regimen was at the discretion of the physician. Exclusion criteria included any acute, unstable comorbid condition or an estimated life expectancy of a few weeks. Sampling (see below) and last DOAC intake times were recorded on a standardized request form. Sampling time points were at the discretion of the physicians over a period of 20 days following inclusion. Time points were classified according to the time elapsed from the last oral intake (T, hours) for patients receiving rivaroxaban. T1 to T4 corresponded to peak time (Tmax), and T20 to T24 corresponded to trough (Tmin). […] Physicians prospectively collected demographic, clinical, and laboratory data (including creatinine clearance [CrCl] calculated with the Cockcroft–Gault formula). The study was approved by the institutionnel Ethics Committee (Comité consultatif de protection des personnes pour la recherche biomédicale–Île-de-France-6–number 15.074bis). All participants gave written informed consent to participate in the study. Only patients for whom remaining plasma aliquots were available were included in the present study.
(§2) Tubes were sent to each centre’s laboratory within 2 hours after sampling and immediately double-centrifuged for 15 minutes at 2000 × g at 15 to 22 °C to obtain platelet-poor plasma. Plasma samples (500 μL aliquots) were stored at −80 °C prior to shipment on dry ice for central analysis (Haematology Laboratory, Hôpital Lariboisière). Plasma samples were thawed for 3 to 5 minutes in a 37 °C water bath just before testing.
Dedicated calibrations and controls were used. The lower limit of quantification was 20 ng/mL for the 3 assays.

[2] = system: fibrin clot formation; experiment: Thrombodynamics-4D fibrinography in plasma samples from ADAGE patients on DOACs; assay type: in vivo, human; conditions: for CS (clot size at 30 minutes), median (IQR) / CS (clot size at 30 minutes), range / D (clot density), median (IQR) / D (clot density), range / Fibrinography Tlag (lag time), median (IQR) / Fibrinography Tlag (lag time), range / Initial rate of clot growth (Vi), median (IQR) / Initial rate of clot growth (Vi), range / Time to Tsp (spontaneous clotting), median (IQR) / Time to Tsp (spontaneous clotting), range: ADAGE patients, reduced dose (regimens as E1)
Description: as §1, §2
(§3) The TD-4D assay was performed centrally using the Thrombodynamics analyzer system (Hemacore, Diapharma) with the TD-4D PLS dedicated kit (Hemacore, Diapharma). The system simultaneously measures spatiotemporal parameters of fibrin clot formation (fibrinography) and TG process (thrombography) in a thin layer of unstirred plasma. Briefly, 120 μL of platelet-poor plasma is added to a microcuvette containing corn trypsin inhibitor to prevent contribution of contact phase activation, then 5 μL of phospholipid solution (manufacturer’s reagent) is added. After incubation for 15 minutes at 37 °C in the Thrombodynamics device, the mixture is transferred to a second microcuvette containing calcium ions, and then immediately transferred to the measurement cuvette. Finally, the activator insert, whose surface is coated with immobilized tissue factor (100 pmol/m^2), is then transferred to the cuvette. The process of fibrin clot formation is recorded in a time-lapse video-microscopy mode using a dark-field light scattering method. Simultaneously, the system monitors TG by fluorimetry, based on the ability of thrombin to cleave a fluorogenic substrate, 7-amino-4-methylcoumarin (AMC) bound to a short amino acid sequence (Arg-Gly-Gly). The rate of AMC formation is proportional to local thrombin concentration. The microcuvette is maintained at 37 °C and is illuminated with red (625 nm) or ultra-violet (365 nm) light emitting diodes. Clot growth is detected with red light scattering, while AMC fluorescence is detected with UV. Scattered red light and fluorescence passing through the macro lens are recorded by a charge-coupled device system. Images under red and blue light are acquired once per minute. The whole analysis lasts 1 hour. The Thrombodynamics software (Hemacore, Diapharma) calculates parameters of spatiotemporal dynamics of fibrin clot formation and TG [40, 46]. […]

[3] = system: thrombin generation; experiment: Thrombodynamics-4D thrombography in plasma samples from ADAGE patients on DOACs; assay type: in vivo, human; conditions: for ETP (endogenous thrombin potential, ETP_ATG), median (IQR) / ETP (endogenous thrombin potential, ETP_ATG), range / Thrombin peak height (Cmax_ATG), median (IQR) / Thrombin peak height (Cmax_ATG), range / Thrombography Tlag (Lag_ATG), median (IQR) / Thrombography Tlag (Lag_ATG), range / Time to peak (Tmax_ATG), median (IQR) / Time to peak (Tmax_ATG), range: ADAGE patients, reduced dose (regimens as E1)
Description: as §1, §2, §3

[4] = system: fibrin clot formation; experiment: Thrombodynamics-4D fibrinography in pooled normal plasma (Cryocheck) spiked with DOACs; assay type: biochemical, human; conditions: 0 to 1000 nM, mainly at low DOAC concentrations
Procedure: (§4) Frozen pooled normal plasma samples (Cryocheck-Cryopep) were spiked with increasing concentrations of DOACs (0-450 ng/mL), as previously described. […] were kindly provided by Bristol Myers Squibb/Pfizer, Bayer Healthcare, and Boehringer Ingelheim, respectively.
The TD-4D assay was performed centrally using the Thrombodynamics analyzer system (Hemacore, Diapharma) with the TD-4D PLS dedicated kit (Hemacore, Diapharma). The system simultaneously measures spatiotemporal parameters of fibrin clot formation (fibrinography) and TG process (thrombography) in a thin layer of unstirred plasma. Briefly, 120 μL of platelet-poor plasma is added to a microcuvette containing corn trypsin inhibitor to prevent contribution of contact phase activation, then 5 μL of phospholipid solution (manufacturer’s reagent) is added. […] The process of fibrin clot formation is recorded in a time-lapse video-microscopy mode using a dark-field light scattering method. […] Clot growth is detected with red light scattering, while AMC fluorescence is detected with UV. Scattered red light and fluorescence passing through the macro lens are recorded by a charge-coupled device system. […]
(§5) The following fibrinography parameters were recorded (see Supplementary Table 1): (i) lag time (Tlag, minutes); (ii) initial rate of clot growth (Vi, μm/min); (iii) rate of clot growth (V, μm/min); (iv) clot size (CS, μm) measured at 30 minutes; (v) clot density (D, arbitrary units); (vi) time to spontaneous clotting (Tsp, minutes). The following thrombography parameters (at the near-activator area) were recorded (see Supplementary Table 1): (i) Tlag (minutes); (ii) time to thrombin peak (minutes); (iii) maximal thrombin concentration (ie, thrombin peak height, Cmax_ATG, AU/L); (iv) endogenous thrombin potential (ETP_ATG, AU⋅min/L); (v) stationary amplitude of moving peak of thrombin (Ast, AU/L); (vi) rate of thrombin peak propagation (μm/min; see Supplementary Videos 1–3).

[5] = system: thrombin generation; experiment: Thrombodynamics-4D thrombography in pooled normal plasma (Cryocheck) spiked with DOACs; assay type: biochemical, human
Procedure: as §4
as §3, with “minute.” for “minute. The whole analysis lasts 1 hour. The Thrombodynamics software (Hemacore, Diapharma) calculates parameters of spatiotemporal dynamics of fibrin clot formation and TG [40, 46].”
as §5

[6] = all ADAGE patient samples, any time point and dose
[7] = all ADAGE patient samples, Spearman
[8] = univariate analysis, Tmax, line marked Halving
[9] = univariate analysis, Tmin, line marked Halving

With COc1ccc(-n2nc(C(N)=O)c3c2C(=O)N(c2ccc(N4CCCCC4=O)cc2)CC3)cc1 [Apixaban] the “DOAC concentration, range” value ([1]; Tmax (peak)) was 69 to 442 ng/mL, the “DOAC concentration, range” value ([1]; Tmin (trough)) was 20 to 240 ng/mL and the “DOAC plasma concentration, lower end of range” value [1, 6] was less than 20 ng/mL. For the same compound, the “DOAC plasma concentration, upper end of range” value [1, 6] was 547 ng/mL, the “CS (clot size at 30 minutes), median (IQR)” value ([2]; Tmax (peak)) was 1362 (1317-1698) μm and the “CS (clot size at 30 minutes), range” value ([2]; Tmax (peak)) was 1134-1857 μm. For the same compound, the “D (clot density), median (IQR)” value ([2]; Tmax (peak)) was 25,340 (22,600-27,790) a.u, the “D (clot density), range” value ([2]; Tmax (peak)) was 14,090-34,880 a.u and the “Fibrinography Tlag (lag time), median (IQR)” value ([2]; Tmax (peak)) was 1.3 (1.2-1.4) min. For the same compound, the “Fibrinography Tlag (lag time), range” value ([2]; Tmax (peak)) was 0.9 to 2.3 min, the “Initial rate of clot growth (Vi), median (IQR)” value ([2]; Tmax (peak)) was 64.9 (60.9-74.2) μm/min and the “Initial rate of clot growth (Vi), range” value ([2]; Tmax (peak)) was 56.1- 95.5 μm/min. The “Time to Tsp (spontaneous clotting), median (IQR)” value ([2]; Tmax (peak)) was 22.9 (12.1-31.1) min, the “Time to Tsp (spontaneous clotting), range” value ([2]; Tmax (peak)) was 6.8 to 48.2 min and the “CS (clot size at 30 minutes), median (IQR)” value ([2]; Tmin (trough)) was 1655 (1395-1780) μm. The “CS (clot size at 30 minutes), range” value ([2]; Tmin (trough)) was 1170-2147 μm, the “D (clot density), median (IQR)” value ([2]; Tmin (trough)) was 25,470 (21,190-29,910) a.u and the “D (clot density), range” value ([2]; Tmin (trough)) was 15,530-37,550 a.u. The “Fibrinography Tlag (lag time), median (IQR)” value ([2]; Tmin (trough)) was 1.1 (1.0-1.3) min, the “Fibrinography Tlag (lag time), range” value ([2]; Tmin (trough)) was 0.7 to 1.8 min and the “Initial rate of clot growth (Vi), median (IQR)” value ([2]; Tmin (trough)) was 68.3 (64.8-76.2) μm/min. For the same compound, the “Initial rate of clot growth (Vi), range” value ([2]; Tmin (trough)) was 54.6-88.8 μm/min, the “Time to Tsp (spontaneous clotting), median (IQR)” value ([2]; Tmin (trough)) was 23.0 (12.8-28.1) min and the “Time to Tsp (spontaneous clotting), range” value ([2]; Tmin (trough)) was 6.8 to 46.7 min. The “Change of CS (clot size) with increasing concentrations” value ([2]; all ADAGE patient samples) was “decreased”, the “Association of D (clot density) with DOAC concentration” value [2, 7] was “not” and the “Relationship between time to spontaneous clot formation (Tsp) and DOAC levels” value [2, 7] was “no relationship”. The “Effect of DOAC concentration at Tmax (βC.pic) on fibrinography initial velocity of clot formation” value [2, 8] was “≈ 0.02018%”, the “Effect of DOAC concentration at Tmin (βC.res) on fibrinography initial velocity of clot formation” value [2, 9] was “≈ 0.04558%” and the “ETP (endogenous thrombin potential, ETP_ATG), median (IQR)” value ([3]; Tmax (peak)) was 1698 (1280-1961) AU⋅min/L. The “ETP (endogenous thrombin potential, ETP_ATG), range” value ([3]; Tmax (peak)) was 971-3095 AU⋅min/L, the “Thrombin peak height (Cmax_ATG), median (IQR)” value ([3]; Tmax (peak)) was 309 (240-395) AU/L and the “Thrombin peak height (Cmax_ATG), range” value ([3]; Tmax (peak)) was 206-507 AU/L. For the same compound, the “Thrombography Tlag (Lag_ATG), median (IQR)” value ([3]; Tmax (peak)) was 0.3 (0.2-0.6) min, the “Thrombography Tlag (Lag_ATG), range” value ([3]; Tmax (peak)) was 0.1 to 1.3 min and the “Time to peak (Tmax_ATG), median (IQR)” value ([3]; Tmax (peak)) was 2.1 (2.1-2.6) min. For the same compound, the “Time to peak (Tmax_ATG), range” value ([3]; Tmax (peak)) was 1.2 to 4.6 min, the “ETP (endogenous thrombin potential, ETP_ATG), median (IQR)” value ([3]; Tmin (trough)) was 1711 (1436-1978) AU⋅min/L and the “ETP (endogenous thrombin potential, ETP_ATG), range” value ([3]; Tmin (trough)) was 924-2958 AU⋅min/L. The “Thrombin peak height (Cmax_ATG), median (IQR)” value ([3]; Tmin (trough)) was 325 (292-379) AU/L, the “Thrombin peak height (Cmax_ATG), range” value ([3]; Tmin (trough)) was 158-511 AU/L and the “Thrombography Tlag (Lag_ATG), median (IQR)” value ([3]; Tmin (trough)) was 0.2 (0.2-0.6) min. For the same compound, the “Thrombography Tlag (Lag_ATG), range” value ([3]; Tmin (trough)) was 0.1 to 1.0 min, the “Time to peak (Tmax_ATG), median (IQR)” value ([3]; Tmin (trough)) was 2.1 (2.1-2.1) min and the “Time to peak (Tmax_ATG), range” value ([3]; Tmin (trough)) was 1.6 to 3.6 min. For the same compound, the “Change of ETP_ATG with increasing DOAC plasma concentrations” value ([3]; all ADAGE patient samples) was “decreased”, the “Effect of DOAC concentration at Tmax (βC.pic) on thrombography peak height (PH)” value [3, 8] was “≈ 0.07471%” and the “Effect of DOAC concentration at Tmin (βC.res) on thrombography peak height (PH)” value [3, 9] was “≈ 0.1698%”. The “Samples in which spontaneous clotting occurred” value [4] was 14% and the “Change of Ast (stationary amplitude of thrombin moving peak) with increasing concentrations” value [5] was “decreased”.
